Measured values published in patent US20260363251A1 (priority 2022, published 2026).

Legend:
[1] = test system: Fusarium virguliforme; test: Seed treatment, soilborne Fusarium virguliforme in soybean in the greenhouse (Example 4.2); conditions: FS500, 40 g ai per 100 kg seeds; disease index vs infected control
[2] = test system: Mycosphaerella fijiensis; test: Treatment of black Sigatoka on banana (Table 10); assay type: in vivo; conditions: 1 d preventive, 400 L/ha, 75 g/ha, 63DAI, + 0.9% Orchex 796 + 0.1% Emulsogen M
[3] = test system: Fusarium graminearum; assay type: in vivo; conditions: 1 d preventive, 220 L/ha, 125 g/ha, 7DAI
[4] = test system: Fusarium avenaceum; assay type: in vivo; conditions: 1 d preventive, 220 L/ha, 125 g/ha, 14DAI

CON(C(=O)c1cn(C)nc1C(F)F)C(C)Cc1c(Cl)cc(Cl)cc1Cl (stereo not shown) [Pydiflumetofen]
activity (%) [1]: 89% | disease symptom reduction (%) vs. Untreated [2]: 97% | disease symptom reduction (%) vs. Untreated [3]: 94% | disease symptom reduction (%) vs. Untreated [4]: 96%
